Columns and labels:
[1] = target: T1, Protocollagen proline hydroxylase (Gallus gallus, UniProt P16924); assay: Protocollagen proline hydroxylase-inhibiting activity; assay type: biochemical; details: partially purified chick embryo enzyme, 100 μg as protein, substrate (Pro-Pro-Gly)5.4H2O; for inhibition at 20 µM: Concentration 20 μM
T1 construct: partially purified enzyme preparation derived from chick embryos; from tissue; host or cells: chick embryos
T1 sequence (P16924 1-516): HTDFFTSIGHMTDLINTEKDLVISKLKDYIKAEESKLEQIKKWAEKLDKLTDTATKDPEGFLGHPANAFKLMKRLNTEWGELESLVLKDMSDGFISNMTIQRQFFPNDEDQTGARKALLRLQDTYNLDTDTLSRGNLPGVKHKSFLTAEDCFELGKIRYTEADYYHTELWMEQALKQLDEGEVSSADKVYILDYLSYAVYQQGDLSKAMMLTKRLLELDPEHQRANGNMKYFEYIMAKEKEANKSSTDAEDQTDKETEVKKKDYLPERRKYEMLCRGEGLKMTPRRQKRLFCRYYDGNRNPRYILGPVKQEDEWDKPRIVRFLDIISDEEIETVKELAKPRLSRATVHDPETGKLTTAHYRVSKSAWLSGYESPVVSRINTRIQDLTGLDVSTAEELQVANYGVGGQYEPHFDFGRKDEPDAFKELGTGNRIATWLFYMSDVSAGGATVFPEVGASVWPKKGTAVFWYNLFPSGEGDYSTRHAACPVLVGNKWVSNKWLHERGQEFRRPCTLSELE
T1 sequence (P09102 23-515 partner): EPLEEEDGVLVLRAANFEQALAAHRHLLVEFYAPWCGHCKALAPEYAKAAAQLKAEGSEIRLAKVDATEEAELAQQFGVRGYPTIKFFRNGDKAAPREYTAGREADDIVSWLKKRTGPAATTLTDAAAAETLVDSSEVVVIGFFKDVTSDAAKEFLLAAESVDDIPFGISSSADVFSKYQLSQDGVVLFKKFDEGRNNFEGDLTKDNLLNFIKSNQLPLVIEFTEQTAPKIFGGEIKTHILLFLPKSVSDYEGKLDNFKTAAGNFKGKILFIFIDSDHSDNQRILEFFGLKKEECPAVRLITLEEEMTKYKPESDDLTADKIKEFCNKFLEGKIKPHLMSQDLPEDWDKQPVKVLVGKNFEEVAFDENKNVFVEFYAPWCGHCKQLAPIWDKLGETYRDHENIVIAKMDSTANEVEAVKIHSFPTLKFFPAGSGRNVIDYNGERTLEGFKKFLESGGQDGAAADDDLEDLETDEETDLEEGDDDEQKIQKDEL
Description: (1) Protocollagen proline hydroxylase-inhibiting activity
This inhibitory activity was assayed by the procedure of R. E. Rhoads et al. (Methods in Enzymology XVII B, 306 (1971)) using a partially purified enzyme preparation derived from chick embryos in accordance with the methods of K. I. Kivirriko et al. and J. Halme et al. (J. Biol. Chem. 242, 4007 (1967) and Biochem. Biophys. Acta 198, 460 (1967), and, as a substrate, (Pro-Pro-Gly)5.4H2 O (Protein Research Foundation, Osaka). In this assay, the partially purified enzyme preparation was used in the amount of 100 μg as protein. The results are shown in Table 1.

[2] = Toxicity, gastric gavage to rats in a 5-week regimen; assay type: in vivo; details: 2500 mg/kg/day
Source text: The compound (I) is very low in toxicity.

Collagen biosynthesis = Collagen biosynthesis inhibiting activity (collagen content of the uterus); assay type: in vivo, rats of SD strain; details: female SD rats; for Collagen content of uterus / Body weight of rats: groups of 3; for Collagen content of uterus: control 1.64 ± 0.3; for Body weight of rats: control 73 ± 6
Description: (2) Collagen biosynthesis inhibiting activity
Basically in accordance with the method of R. A. Salvador et al. [Arch. Biochem. Biophys. 174, 382 (1976)], 0.2 mg/kg of each test compound was intraperitoneally administered to rats of SD strain (.female., 3 weeks old) once daily for 6 consecutive days and the collagen content of the uterus was compared with the control value.
*Rats were used in groups of 3. Initial body weights = 41 ± 2 ~

[3] = given with 17β-Estradiol, 0.2 mg/kg of each test compound intraperitoneally once daily for 6 consecutive days
[4] = 17β-Estradiol alone, 0.2 mg/kg intraperitoneally once daily for 6 consecutive days

SMILES: COC1=C(OC)C(=O)C(CCCCCCCC(=O)O)=C(C)C1=O [A:CO n:7 R:H]
- inhibition at 20 µM [1]: 35%

SMILES: COC1=C(OC)C(=O)C(CCCCCCCCCC(=O)O)=C(C)C1=O [A:CO n:9 R:H]
- inhibition at 20 µM [1]: 31%

SMILES: COC1=C(OC)C(=O)C(CCCC(=O)O)=C(C)C1=O [A:CO n:3 R:H]
- inhibition at 20 µM [1]: 57%

SMILES: COC1=C(OC)C(=O)C(CCCCCCCCCCO)=C(C)C1=O [A:CH2 n:9 R:H, 2,3-dimethoxy-5-methyl-6-(10'-hydroxydecyl)-1,4-benzoquinone]
- Abnormalities in body weight, food intake, urinalysis and blood tests [2]: no abnormalities in body weight, food intake, urinalysis and blood tests
- inhibition at 20 µM [1]: 37%
- Collagen content of uterus (Collagen biosynthesis; [3]): 2.94 ± 0.28
- Body weight of rats (Collagen biosynthesis; [3]): 69 ± 6 g
- Degree of inhibition (Collagen biosynthesis; given with 17β-Estradiol, 0.2 mg/kg of each test compound intraperitoneally once daily for 6 consecutive days, formula in footnote ** (drawing 3)): 28

SMILES: C[C@]12CC[C@@H]3c4ccc(O)cc4CC[C@H]3[C@@H]1CC[C@@H]2O [17β-Estradiol, reference compound]
- Collagen content of uterus (Collagen biosynthesis; [4]): 3.45 ± 0.11
- Body weight of rats (Collagen biosynthesis; [4]): 73 ± 3 g

SMILES: COC(=O)CCCCCCCCCC1=C(C)C(=O)C(OC)=C(OC)C1=O [A:CO n:9 R:CH3]
- inhibition at 20 µM [1]: 21%

SMILES: COC1=C(OC)C(=O)C(CCCCO)=C(C)C1=O [A:CH2 n:3 R:H]
- inhibition at 25 µM ([1]; Concentration 25 μM): 68%

SMILES: COC(=O)CCCC1=C(C)C(=O)C(OC)=C(OC)C1=O [A:CO n:3 R:CH3]
- inhibition at 50 µM ([1]; Concentration 50 μM): 47%

— patent US4514420A, “Antifibrotic agent” (Takeda Chemical Industries, Ltd., priority 1982, dated 1985)
